Test system: Aβ peptides (Aβ40, Aβ42) in the plasma and brain of TgCRND8 mice
Experiment: Short term treatment (14 or 28 days) in TgCRND8 mice: Aβ levels in plasma and brain by ELISA;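 on Aβ40 Change Insoluble: symbols grade percent change in Aβ versus untreated control with plus for increase and minus for decrease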;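 on Aβ40 Change Soluble: symbols grade percent change in Aβ versus untreated control with plus for increase and minus for decrease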;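 on Aβ42 Change Insoluble: symbols grade percent change in Aβ versus untreated control with plus for increase and minus for decrease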
Format: in vivo, mouse
Conditions: for Aβ40 Change / Aβ42 Change: plasma
Protocol: The short term therapeutic effect of 19 compounds of the invention was studied. These compounds were administered over a 14 or 28 day period at the end of which the levels of Aβ peptides in the plasma and brain of TgCRND8 animals were determined.
Male and female transgenic mice from the 3rd and 4th B6C3F1 generations were used in this example and given daily subcutaneous or oral administrations of one of a series of compounds for 14 or 28 days. The following abbreviations are used to designate these animals from the 3rd and 4th generation backcross in the present protocol: TgCRND8-2.B6C3F1(N3); TgCRND8-2.B6C3F1 (N4).
Baseline animals (Group 1) consisted of naive TgCRND8-2. B6C3F1(N3) at 11±1 weeks of age. These mice were used to determine the Aβ levels in the plasma and brain of naive transgenic animals at the initiation of treatment.
Starting at 11 weeks of age (±1 week) animals received daily administration of their respective treatment for a period of 14 or 28 days (groups 2-21), at a dose of 250 mg/kg at 10 ml/kg or of vehicle only (water; group 2) or 1% methyl cellulose only (group 21). The route of administration was subcutaneous for water-soluble compounds and oral for compounds solubilized in methylcellulose 1%. (MC 1%). At the end of the treatment periods, plasma and perfused brains were collected for quantification of Aβ levels.
At 11±1 weeks of age for the Baseline group, and at the end of the treatment period (14 or 28 days) for Groups 2 to 21, at 24 hours after the last compound administration animals were sacrificed and samples collected. An approximate blood volume of 500 μl was collected from the orbital sinus and kept on ice until centrifugation at 4° C. at a minimum speed of 3,000 rpm for 10 minutes. Plasma samples were immediately frozen and stored at −80° C. pending analysis. The brains were removed, frozen, and stored at −80° C. awaiting analysis.
Brains were weighted frozen and homogenized with 4 volumes of ice cold 50 mM Tris-Cl pH 8.0 buffer with protease inhibitor cocktail (4 mL of buffer for 1 g of wet brain). Samples were spun at 15000 g for 20 minutes and the supernatants were transferred to fresh tubes. One hundred fifty (150) μl from each supernatant were mixed with 250 μl of 8M guanidine-HCL/50 mM Tris-HCL pH 8.0 (ratio of 0.6 vol supernatant:1 vol 8M guanidium/Tris-HCL 50 mM pH8.0) and 400 μL 5 M guanidium/Tris-HCL 50 mM pH8.0 were added. The tubes were vortexed for 30 seconds and frozen at −80° C. In parallel, pellets were treated with 7 volumes of 5 M guanidine-HCL/50 mM Tris-HCL pH 8.0 (7 mL of guanidine for 1 g of wet brain), vortexed for 30 seconds and frozen at −80° C. Samples were thawed at room temperature, sonicated at 80° C. for 15 minutes and frozen again. This cycle was repeated 3 times to ensure homogeneity and samples were returned to −80° C. pending analysis.
Aβ levels were evaluated in plasma and brain samples by ELISA using Human Aβ40 and Aβ42 Fluorometric ELISA kits from Biosource (Cat. No. 89-344 and 89-348) according to manufacturer's recommended procedures. In short, samples were thawed at room temperature, sonicated for 5 minutes at 80° C. (sonication for brain homogenates; no sonication for plasma samples) and kept on ice. Aβ peptides were captured using 100 μl of the diluted samples to the plate and incubated without shaking at 4° C. overnight. The samples were aspirated and the wells were rinsed 4 times with wash buffer obtained from the Biosource ELISA kit. The anti-Aβ40 or anti-Aβ42 rabbit polyclonal antiserum (specific for the Aβ40 or Aβ42 peptide) was added (100 μl) and the plate was incubated at room temperature for 2 hours with shaking. The wells were aspirated and washed 4 times before adding 100 μl of the alkaline phosphatase labeled anti-rabbit antibody and incubating at room temperature for 2 hours with shaking. The plates were then rinsed 5 times and the fluorescent substrate (100 μl) was added to the plate. […]

[1] = brain homogenate, Day 14, vehicle group, 250 mg/kg daily
[2] = brain homogenate, Day 28, vehicle group, 250 mg/kg daily
[3] = Day 14, vehicle (water) group, 250 mg/kg daily subcutaneous
[4] = Day 28, vehicle (water) group, 250 mg/kg daily subcutaneous
[5] = brain homogenate, Day 14, methylcellulose group, daily oral
[6] = brain homogenate, Day 28, methylcellulose group, daily oral
[7] = brain homogenate, Day 28, vehicle group, 250 mg/kg daily, total, not soluble/insoluble

Structure (SMILES) | Aβ42 Change Insoluble [1] | Aβ40 Change Insoluble [2] | Aβ40 Change Soluble [2] | Aβ42 Change Insoluble [2] | Aβ42 Change Soluble [2] | Aβ40 Change Insoluble [1] | Aβ42 Change Soluble [1] | other results
COc1ccc([C@H](C)NCCCS(=O)(=O)O)cc1 [DZ] | −− (decreases of 20 to 38%) | −− (decreases of 20 to 38%) | − (Decreases in the levels of Aβ of 5 to 19%) | −− (decreases of 20 to 38%) | −− (decreases of 20 to 38%) |  |  | 
O=S(=O)(O)CC(O)CNC1CCCCC1 (centres unmarked) [DC] | −− (decreases of 20 to 38%) | + (increases in the levels of Aβ (relative to untreated control) of 20 to 39%) | − (Decreases in the levels of Aβ of 5 to 19%) | +++ (increases of 70% or higher) | ++ (increases of 40 to 69%) | −− (decreases of 20 to 38%) | + (increases in the levels of Aβ (relative to untreated control) of 20 to 39%) | Aβ40 Change [3]: ++ (increases of 40 to 69%); Aβ42 Change [3]: ++ (increases of 40 to 69%); Aβ40 Change [4]: ++ (increases of 40 to 69%)
CCC(CC)NCCCS(=O)(=O)O [DD] |  | − (Decreases in the levels of Aβ of 5 to 19%) |  |  |  | − (Decreases in the levels of Aβ of 5 to 19%) |  | 
COC[C@H](NCCCS(=O)(=O)O)[C@@H](O)c1ccccc1 [EG] | −− (decreases of 20 to 38%) | −− (decreases of 20 to 38%) |  | −− (decreases of 20 to 38%) |  | −− (decreases of 20 to 38%) | −− (decreases of 20 to 38%) | Aβ40 Change Soluble [1]: − (Decreases in the levels of Aβ of 5 to 19%)
CC(C)(NCCCS(=O)(=O)O)c1ccccc1 [DM] | − (Decreases in the levels of Aβ of 5 to 19%) | −− (decreases of 20 to 38%) | − (Decreases in the levels of Aβ of 5 to 19%) | −− (decreases of 20 to 38%) | −− (decreases of 20 to 38%) | + (increases in the levels of Aβ (relative to untreated control) of 20 to 39%) | − (Decreases in the levels of Aβ of 5 to 19%) | 
CC12CC3CC(C)(C1)CC(NCCCS(=O)(=O)O)(C3)C2 [CY] |  |  |  |  |  |  |  | Aβ40 Change Soluble [5]: − (Decreases in the levels of Aβ of 5 to 19%); Aβ42 Change Insoluble [5]: ++ (increases of 40 to 69%); Aβ42 Change Soluble [5]: +++ (increases of 70% or higher); Aβ40 Change Insoluble [6]: +++ (increases of 70% or higher); Aβ40 Change Soluble [6]: ++ (increases of 40 to 69%); Aβ42 Change Insoluble [6]: + (increases in the levels of Aβ (relative to untreated control) of 20 to 39%); Aβ42 Change Soluble [6]: +++ (increases of 70% or higher); Aβ42 Change (Day 28, methylcellulose group, daily oral): + (increases in the levels of Aβ (relative to untreated control) of 20 to 39%)
O=S(=O)(O)CCCNCC(O)c1ccccc1 (centres unmarked) [DY] | −− (decreases of 20 to 38%) | −−− (decreases of 39% or more) |  | −− (decreases of 20 to 38%) | − (Decreases in the levels of Aβ of 5 to 19%) | −− (decreases of 20 to 38%) |  | 
CC1CC(NCCCS(=O)(=O)O)CC(C)(C)C1 (centres unmarked) [ED] |  | −− (decreases of 20 to 38%) | − (Decreases in the levels of Aβ of 5 to 19%) | − (Decreases in the levels of Aβ of 5 to 19%) | − (Decreases in the levels of Aβ of 5 to 19%) | + (increases in the levels of Aβ (relative to untreated control) of 20 to 39%) |  | Aβ40 Change Soluble [1]: − (Decreases in the levels of Aβ of 5 to 19%)
O=S(=O)(O)CCCNC1CC2CCC1C2 (centres unmarked) [BY] |  | +++ (increases of 70% or higher) | + (increases in the levels of Aβ (relative to untreated control) of 20 to 39%) | +++ (increases of 70% or higher) |  | +++ (increases of 70% or higher) | +++ (increases of 70% or higher) | Aβ40 Change Soluble [1]: +++ (increases of 70% or higher); Aβ40 Change [3]: + (increases in the levels of Aβ (relative to untreated control) of 20 to 39%); Aβ42 Change [3]: + (increases in the levels of Aβ (relative to untreated control) of 20 to 39%)
C#CC1(NCCCS(=O)(=O)O)CCCCC1 [DX] | − (Decreases in the levels of Aβ of 5 to 19%) | −− (decreases of 20 to 38%) |  | −− (decreases of 20 to 38%) | − (Decreases in the levels of Aβ of 5 to 19%) | −− (decreases of 20 to 38%) |  | 
CC(C)(CO)NCCCS(=O)(=O)O [DH] | −−− (decreases of 39% or more) | − (Decreases in the levels of Aβ of 5 to 19%) |  | − (Decreases in the levels of Aβ of 5 to 19%) |  | −− (decreases of 20 to 38%) | −−− (decreases of 39% or more) | 
CCNCCCS(=O)(=O)O [CV] |  |  |  |  |  |  |  | Aβ40 Change (total level) (brain homogenate, Day 14, vehicle group, 250 mg/kg daily, total, not soluble/insoluble): − (Decreases in the levels of Aβ of 5 to 19%); Aβ40 Change (total level) [7]: ++ (increases of 40 to 69%); Aβ42 Change (total level) [7]: +++ (increases of 70% or higher); Aβ40 Change [3]: + (increases in the levels of Aβ (relative to untreated control) of 20 to 39%); Aβ42 Change [3]: ++ (increases of 40 to 69%); Aβ40 Change [4]: ++ (increases of 40 to 69%); Aβ42 Change [4]: ++ (increases of 40 to 69%)
